In PubChem BioAssay AID2060901 (Molecular Pharmacology Branch, DTP, NCI, 2025):
Blank lines part the entries; values can stand above or below the compound they belong to.

System: 422866-222-R5-J1-PDC complex spheroids viability
Experiment: Anticancer human tumor 422866-222-R5-J1-PDC patient-derived pancreatic adenocarcinoma cell line growth inhibition [RAS]
Conditions: for viability, T/C: stronger effect = lower value
In short: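 Tumour cells grown as complex spheroids with HUVEC endothelial cells and mesenchymal stem cells, treated with RAS pathway inhibitor combinations. Each agent spans half-log steps from near clinical Cmax, or 10 microM where Cmax is unknown.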

[1] = curve of first compound, second compound 0.000949 µM
[2] = curve of first compound, second compound 0.003 µM
[3] = curve of first compound, second compound 0.00949 µM
[4] = curve of first compound, second compound 0.03 µM
[5] = curve of first compound, second compound 0.0949 µM
[6] = curve of first compound, second compound 0.3 µM
[7] = second compound 0.000949 µM, first compound 0.00316 µM
[8] = second compound 0.000949 µM, first compound 0.01 µM
[9] = second compound 0.000949 µM, first compound 0.0316 µM
[10] = second compound 0.000949 µM, first compound 0.1 µM
[11] = second compound 0.000949 µM, first compound 0.316 µM
[12] = second compound 0.000949 µM, first compound 1 µM
[13] = second compound 0.003 µM, first compound 0.00316 µM
[14] = second compound 0.003 µM, first compound 0.01 µM
[15] = second compound 0.003 µM, first compound 0.0316 µM
[16] = second compound 0.003 µM, first compound 0.1 µM
[17] = second compound 0.003 µM, first compound 0.316 µM
[18] = second compound 0.003 µM, first compound 1 µM
[19] = second compound 0.00949 µM, first compound 0.00316 µM
[20] = second compound 0.00949 µM, first compound 0.01 µM
[21] = second compound 0.00949 µM, first compound 0.0316 µM
[22] = second compound 0.00949 µM, first compound 0.1 µM
[23] = second compound 0.00949 µM, first compound 0.316 µM
[24] = second compound 0.00949 µM, first compound 1 µM
[25] = second compound 0.03 µM, first compound 0.00316 µM
[26] = second compound 0.03 µM, first compound 0.01 µM
[27] = second compound 0.03 µM, first compound 0.0316 µM
[28] = second compound 0.03 µM, first compound 0.1 µM
[29] = second compound 0.03 µM, first compound 0.316 µM
[30] = second compound 0.03 µM, first compound 1 µM
[31] = second compound 0.0949 µM, first compound 0.00316 µM
[32] = second compound 0.0949 µM, first compound 0.01 µM
[33] = second compound 0.0949 µM, first compound 0.0316 µM
[34] = second compound 0.0949 µM, first compound 0.1 µM
[35] = second compound 0.0949 µM, first compound 0.316 µM
[36] = second compound 0.0949 µM, first compound 1 µM
[37] = second compound 0.3 µM, first compound 0.00316 µM
[38] = second compound 0.3 µM, first compound 0.01 µM
[39] = second compound 0.3 µM, first compound 0.0316 µM
[40] = second compound 0.3 µM, first compound 0.1 µM
[41] = second compound 0.3 µM, first compound 0.316 µM
[42] = second compound 0.3 µM, first compound 1 µM
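Further: spheroids exposed to compounds for 7 days.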
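Wherever viability, T/C is given: 100% = DMSO vehicle control viability.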

- IC50 [1]: < 3.16 nM
- IC50 [2]: < 3.16 nM
- IC50 [3]: < 3.16 nM
- IC50 [4]: < 3.16 nM
- IC50 [5]: < 3.16 nM
- IC50 [6]: < 3.16 nM
Structure (SMILES): CCN1CCN(Cc2ccc(Nc3ncc(F)c(-c4cc(F)c5nc(C)n(C(C)C)c5c4)n3)nc2)CC1 + CCn1c(-c2cccnc2C(C)OC)c2c3cc(ccc31)N1CCOC(CC(NC(=O)C(C(C)C)N(C)C(=O)C3(F)CCN(C(=O)C#CC(C)(C)N(C)C)CC3)C(=O)N3CCCC(N3)C(=O)OCC(C)(C)C2)C1
- viability, T/C [7]: 30.8%
- viability, T/C [8]: 26.9%
- viability, T/C [9]: 27.2%
- viability, T/C [10]: 25.8%
- viability, T/C [11]: 30%
- viability, T/C [12]: 39%
- viability, T/C [13]: 23.8%
- viability, T/C [14]: 24.9%
- viability, T/C [15]: 23.7%
- viability, T/C [16]: 20.3%
- viability, T/C [17]: 26.3%
- viability, T/C [18]: 37.5%
- viability, T/C [19]: 25%
- viability, T/C [20]: 21.9%
- viability, T/C [21]: 20%
- viability, T/C [22]: 21.5%
- viability, T/C [23]: 25.3%
- viability, T/C [24]: 37.5%
- viability, T/C [25]: 20.6%
- viability, T/C [26]: 19.9%
- viability, T/C [27]: 16.8%
- viability, T/C [28]: 19.1%
- viability, T/C [29]: 26.7%
- viability, T/C [30]: 40.3%
- viability, T/C [31]: 18.5%
- viability, T/C [32]: 21.1%
- viability, T/C [33]: 19.7%
- viability, T/C [34]: 18.6%
- viability, T/C [35]: 27.5%
- viability, T/C [36]: 37.2%
- viability, T/C [37]: 19.9%
- viability, T/C [38]: 18.8%
- viability, T/C [39]: 18.8%
- viability, T/C [40]: 17.1%
- viability, T/C [41]: 24%
- viability, T/C [42]: 34.9%

- IC50 (compound alone, run of 06/10/2024): 1.11 µM [middle of 8 runs]
Structure (SMILES): C#Cc1c(F)ccc2cc(O)cc(-c3ncc4c(N5CC6CCC(C5)N6)nc(OCC56CCCN5CC(F)C6)nc4c3F)c12 (configuration not stated)
- viability, T/C (compound 0.0316 µM): 98.7% [middle of 8 runs]
- viability, T/C (compound 0.316 µM): 67.4% [middle of 8 runs]
- viability, T/C (compound 1 µM): 51.8% [middle of 8 runs]
- viability, T/C (compound 3.16 µM): 37.3% [middle of 8 runs]
- viability, T/C (compound 10 µM): 26.2% [middle of 8 runs]

- IC50 [1]: < 3.16 nM
- IC50 [2]: < 3.16 nM
- IC50 [3]: < 3.16 nM
- IC50 [4]: < 3.16 nM
- IC50 [5]: < 3.16 nM
- IC50 [6]: < 3.16 nM
Structure (SMILES): Nc1ccn(C2OC(CO)C(O)C2(F)F)c(=O)n1 (configuration not stated) + CCn1c(-c2cc(N3CCN(C)CC3)cnc2C(C)OC)c2c3cc(ccc31)-c1csc(n1)CC(NC(=O)C1CC1C)C(=O)N1CCCC(N1)C(=O)OCC(C)(C)C2
- viability, T/C [7]: 30.8%
- viability, T/C [8]: 27.9%
- viability, T/C [9]: 25.3%
- viability, T/C [10]: 24.1%
- viability, T/C [11]: 22.2%
- viability, T/C [12]: 19.4%
- viability, T/C [13]: 25.6%
- viability, T/C [14]: 23.5%
- viability, T/C [15]: 20.5%
- viability, T/C [16]: 16.5%
- viability, T/C [17]: 18.6%
- viability, T/C [18]: 17.4%
- viability, T/C [19]: 20.4%
- viability, T/C [20]: 21.1%
- viability, T/C [21]: 20.4%
- viability, T/C [22]: 16.3%
- viability, T/C [23]: 15.2%
- viability, T/C [24]: 15.8%
- viability, T/C [25]: 18.9%
- viability, T/C [26]: 20.1%
- viability, T/C [27]: 17.4%
- viability, T/C [28]: 16.1%
- viability, T/C [29]: 15.8%
- viability, T/C [30]: 14.7%
- viability, T/C [31]: 19.3%
- viability, T/C [32]: 20.8%
- viability, T/C [33]: 16.7%
- viability, T/C [34]: 15.6%
- viability, T/C [35]: 16.6%
- viability, T/C [36]: 16.4%
- viability, T/C [37]: 20%
- viability, T/C [38]: 20.4%
- viability, T/C [39]: 18.5%
- viability, T/C [40]: 18.7%
- viability, T/C [41]: 18.9%
- viability, T/C [42]: 15.4%

- IC50 (curve of first compound, second compound 0.00316 µM): < 31.6 nM
- IC50 (curve of first compound, second compound 0.01 µM): < 31.6 nM
- IC50 (curve of first compound, second compound 0.0316 µM): < 31.6 nM
- IC50 (curve of first compound, second compound 0.1 µM): < 31.6 nM
- IC50 (curve of first compound, second compound 0.316 µM): < 31.6 nM
- IC50 (curve of first compound, second compound 1 µM): < 31.6 nM
Structure (SMILES): CC(=O)OC12COC1CC(O)C1(C)C(=O)C(O)C3=C(C)C(OC(=O)C(O)C(NC(=O)OC(C)(C)C)c4ccccc4)CC(O)(C(OC(=O)c4ccccc4)C21)C3(C)C (configuration not stated) + C=CC(=O)N1CCN(c2nc(OCC3CCCN3C)nc3c(F)c(-c4nc(N)cc(C)c4C(F)(F)F)c(Cl)cc23)C(C)C1
- viability, T/C (second compound 0.00316 µM, first compound 0.0316 µM): 19.5%
- viability, T/C (second compound 0.00316 µM, first compound 0.1 µM): 21.1%
- viability, T/C (second compound 0.00316 µM, first compound 0.316 µM): 26.7%
- viability, T/C (second compound 0.00316 µM, first compound 1 µM): 22%
- viability, T/C (second compound 0.00316 µM, first compound 3.16 µM): 19.1%
- viability, T/C (second compound 0.00316 µM, first compound 10 µM): 26%
- viability, T/C (second compound 0.01 µM, first compound 0.0316 µM): 21.5%
- viability, T/C (second compound 0.01 µM, first compound 0.1 µM): 20.8%
- viability, T/C (second compound 0.01 µM, first compound 0.316 µM): 20.4%
- viability, T/C (second compound 0.01 µM, first compound 1 µM): 17.6%
- viability, T/C (second compound 0.01 µM, first compound 3.16 µM): 20.4%
- viability, T/C (second compound 0.01 µM, first compound 10 µM): 19.6%
- viability, T/C (second compound 0.0316 µM, first compound 0.0316 µM): 17.9%
- viability, T/C (second compound 0.0316 µM, first compound 0.1 µM): 20.8%
- viability, T/C (second compound 0.0316 µM, first compound 0.316 µM): 19.3%
- viability, T/C (second compound 0.0316 µM, first compound 1 µM): 17%
- viability, T/C (second compound 0.0316 µM, first compound 3.16 µM): 21.2%
- viability, T/C (second compound 0.0316 µM, first compound 10 µM): 20.9%
- viability, T/C (second compound 0.1 µM, first compound 0.0316 µM): 17.3%
- viability, T/C (second compound 0.1 µM, first compound 0.1 µM): 21%
- viability, T/C (second compound 0.1 µM, first compound 0.316 µM): 18.1%
- viability, T/C (second compound 0.1 µM, first compound 1 µM): 19.2%
- viability, T/C (second compound 0.1 µM, first compound 3.16 µM): 22.5%
- viability, T/C (second compound 0.1 µM, first compound 10 µM): 22.5%
- viability, T/C (second compound 0.316 µM, first compound 0.0316 µM): 15.3%
- viability, T/C (second compound 0.316 µM, first compound 0.1 µM): 17.8%
- viability, T/C (second compound 0.316 µM, first compound 0.316 µM): 19.5%
- viability, T/C (second compound 0.316 µM, first compound 1 µM): 17.6%
- viability, T/C (second compound 0.316 µM, first compound 3.16 µM): 18.4%
- viability, T/C (second compound 0.316 µM, first compound 10 µM): 23.3%
- viability, T/C (second compound 1 µM, first compound 0.0316 µM): 16.6%
- viability, T/C (second compound 1 µM, first compound 0.1 µM): 17.7%
- viability, T/C (second compound 1 µM, first compound 0.316 µM): 22.7%
- viability, T/C (second compound 1 µM, first compound 1 µM): 20%
- viability, T/C (second compound 1 µM, first compound 3.16 µM): 22.3%
- viability, T/C (second compound 1 µM, first compound 10 µM): 22.6%
